Reference: patent US20060229255A1, “Identification of n-alkylglycine trimers for induction of apoptosis” (priority 2003, published 2006)

How the values were obtained:
[1] = system: HT29 human colon adenocarcinoma cells; test: Cellular proliferation assay (MTT); assay type: cell-based; conditions: for IC50: HT29, MTT assay after 72 h, read-out: IC50 proliferation inhibition; for Anti-proliferative effect in combination with serial dilutions of Taxol versus Taxol alone: HT29, compound at its IC50, 72 h; for Effect of Taxol on the compound's proliferation inhibition: HT29, with low dose of Taxol (11 nM), 72 h
Excerpt: For screening of the peptoid library containing 10.648 compounds, controlled mixtures of trimers of N-alkylglycine oligomer molecules (peptoid) have been used and constructed under […] positional scanning formats. Chemical diversity was introduced through the substitution of position R1, R2 and R3 by 22 different primary amines. 66 controlled mixtures divided into three different subgroups depending on the R1, R2, R3 defined position. The library was screened on a cellular proliferation assay with HT29 human colon adenocarcinoma cells. The compounds were tested either alone or together with a low dose of Taxol (11 nM). After 72 h in culture, cellular viability was measured with the MTT assay.
Cellular Assays. Combinatorial libraries were screened on a cellular proliferation assay with HT29 human colon adenocarcinoma cells. The compounds were tested either alone or together with low doses of Taxol (nM). After 3 days in culture, cellular viability was measured with an MTT assay (3-4,5-Dimethyl-2-thiazolyl-2,5-diphenyl-2H-tetrazolium bromide). MTT was added at a final concentration of 1 mg/ml in the cell cultures, and after 4 h incubation at 37° C. cell lysis was performed with 15% SDS/DMF (v/v). Spectrophotometric measurement of MTT-formazan at 570 nm and a reference filter at 630 nm allows quantitation of cellular viability. Proliferation inhibition due to the compounds alone was compared to inhibition observed in Taxol plus compound treated cultures.
FIG. 1. Compounds N10-13-10C, N13-13-10C, N4-13-10C and N5-13-10C inhibit HT29 proliferation. Taxol interferes the effect of N10-13-10C and N13-13-10C. (A, B) HT29 cells were grown with peptoid at several concentrations with or without Taxol (11 nM). MTT assay was performed after 72 h of treatment. Proliferation inhibition is shown for N4-13-10C and N13-13-10C (A.), N5-13-10C and N10-13-10C (B.) compared to proliferation of control cells. IC50 value is specified for each peptoid. N10-13-10C and N13-13-10C were purified peptoids by HPLC, corresponding to the major and active fraction. N4-13-10C and N5-13-10C peptoids were not purified by HPLC. […] Proliferation was evaluated by MTT assay after 72 h of treatment. An arbitrary value of 100% was assigned to the densiometric rate of untreated cultures and all other values are depicted relative to that reference. The values are means of six (n=6) replicates.

Cdk4/CycD1 = molecular target: T1, Cdk4/CycD1 (Homo sapiens, UniProt P11802); test: 33PanQinase Cdk4/CycD1 kinase assay (pRb phosphorylation); assay type: biochemical; conditions: 3 μM or 30 μM
T1 construct: GST; host or cells: Sf9 insect cells, baculovirus
T1 sequence (P11802 whole entry): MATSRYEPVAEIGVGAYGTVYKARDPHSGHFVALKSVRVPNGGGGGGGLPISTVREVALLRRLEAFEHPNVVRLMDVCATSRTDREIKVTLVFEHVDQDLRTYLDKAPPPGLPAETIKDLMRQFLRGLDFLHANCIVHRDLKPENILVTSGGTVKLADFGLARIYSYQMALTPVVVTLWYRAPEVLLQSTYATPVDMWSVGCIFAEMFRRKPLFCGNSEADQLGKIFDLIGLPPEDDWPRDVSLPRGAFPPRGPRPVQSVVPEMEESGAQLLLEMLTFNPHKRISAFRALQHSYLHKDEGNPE
T1 sequence (P24385 whole entry partner): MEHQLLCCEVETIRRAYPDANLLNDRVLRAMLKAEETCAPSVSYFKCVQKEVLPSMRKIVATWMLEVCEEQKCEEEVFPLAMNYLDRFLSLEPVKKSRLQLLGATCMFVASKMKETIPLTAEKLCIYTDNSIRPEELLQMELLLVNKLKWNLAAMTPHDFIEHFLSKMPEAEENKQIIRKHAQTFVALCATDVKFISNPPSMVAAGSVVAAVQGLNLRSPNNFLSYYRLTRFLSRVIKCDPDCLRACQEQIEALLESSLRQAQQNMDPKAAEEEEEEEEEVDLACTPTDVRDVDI
Method: ^33Pan Qinase assays containing cycD, Cdk4 and pRb protein in the presence of 3 μM or 30 μM, N10-13-10C or N13-13-10C, were performed.
To assay Cdk4/CycD1 kinase activity, Cdk4 was expressed in Sf9 insect cells as recombinant GST-fusion protein by means of baculovirus expression system. Kinase assay was performed in 96-well FlashPlates (NEN) in a 50 μl reaction volume using the ^33PanQinase activity assay (ProQinase) and Beckman Coulter/Sagian robotic system. The reaction cocktail was 20 μl of assay buffer (50 mM Hepes-NaOH pH 7.5, 3 mM MgCl2, 3 mM MnCl2, 3 μM Na-orthovanadate, 1 mM DTT, 0.1 μM […]); 1 μg pRb protein; 100 ng enzyme; and 5 μl of test compound in 10% DMSO. The reaction cocktail was incubated at 30° C. for 80 min. The reaction was stopped with 50 μl of 0.2% (v/v) H3PO4, plates were aspirated and washed two times with 0.9% (w/v) NaCl. Incorporation of ^33P was determined with a microplate scintillation counter (Microbeta, Wallac).

cycA-Cdk2 = cycA-Cdk2 (Homo sapiens, UniProt P24941); test: In vitro kinase assay for Cdk2; assay type: biochemical; conditions: 3 μM or 30 μM
Method: We had observed that cycA protein levels and pRb hypophosphorylation decrease in cell extracts of N10-13-10C or N13-13-10C treated cells (FIG. 8). To assess whether these compounds were direct inhibitors of Cdk2 activity, in vitro kinase assays for Cdk2 were performed.
Kinase assays for testing of Cdk2/CycA-E kinase activity. ELISA plates were blocked with 200 μl of blocking solution (PBS containing 1% BSA, 0.02% Tween and 0.02% sodium Azide) overnight at 4° C. Plates were then subsequently washed 3 times, 5 min each with 100 μl of washing solution (PBS containing 0.02% Tween and 0.02% sodium Azide). Plates were then dried during 2-4 h at room temperature. Kinase assay was performed in kinase buffer (Hepes 25 mM pH 7.4 and MgCl2 10 mM) containing 4 μg of histone H1, 30 μM ATP, 2 mM DTT, 0.1 μl of ATP-P^32, 800 nM GST-CDK2, and 800 nM of GST-cyclin A in a final volume of 60 μl. Assays were carried out in the presence or absence of different concentrations of peptide mixtures to be checked. A inhibitory control was performed adding 800 nM of p21 to the reaction media. Mixtures were incubated for 30 min at 37° C. After incubation, 50 μl of each mixture was filtered in nitrocellulose membranes placed in a dot blot apparatus. […] The radioactivity associated to the membranes was detected with a “Phosphor-imager”.

Compound	IC50 [1] [µM]	Anti-proliferative effect in combination with serial dilutions of Taxol versus Taxol alone [1]	Effect of Taxol on the compound's proliferation inhibition [1]	Inhibition of pRb phosphorylation by cycD/Cdk4 (Cdk4/CycD1)	Inhibition of cycA-Cdk2 kinase activity (cycA-Cdk2)
COc1ccc(CCNCC(=O)N(CCc2ccc(OC)cc2)CC(=O)N(CCc2ccccc2)CC(N)=O)cc1 [N13-13-10C]	35	potentated anti-proliferative effect	Taxol prevented the compound's effect	No inhibition	Neither of both compounds was able to inhibit
COc1ccc(CCN(CC(=O)N(CCc2ccccc2)CC(N)=O)C(=O)CNCCc2ccccc2)cc1 [N10-13-10C]	40	potentated anti-proliferative effect	Taxol prevented the compound's effect	No inhibition	Neither of both compounds was able to inhibit
